Experimental data as given in ChEMBL document CHEMBL5291721, “A preclinical secondary pharmacology resource illuminates target-adverse drug reaction associations of marketed drugs” (Nat Commun, 2023).

Key:
[1] = target: Mu-type opioid receptor (Homo sapiens, UniProt P35372); assay: biochemical; assay type: functional
[2] = target: T1, Estrogen receptor (Homo sapiens, UniProt P03372)
T1 sequence (P03372 whole entry): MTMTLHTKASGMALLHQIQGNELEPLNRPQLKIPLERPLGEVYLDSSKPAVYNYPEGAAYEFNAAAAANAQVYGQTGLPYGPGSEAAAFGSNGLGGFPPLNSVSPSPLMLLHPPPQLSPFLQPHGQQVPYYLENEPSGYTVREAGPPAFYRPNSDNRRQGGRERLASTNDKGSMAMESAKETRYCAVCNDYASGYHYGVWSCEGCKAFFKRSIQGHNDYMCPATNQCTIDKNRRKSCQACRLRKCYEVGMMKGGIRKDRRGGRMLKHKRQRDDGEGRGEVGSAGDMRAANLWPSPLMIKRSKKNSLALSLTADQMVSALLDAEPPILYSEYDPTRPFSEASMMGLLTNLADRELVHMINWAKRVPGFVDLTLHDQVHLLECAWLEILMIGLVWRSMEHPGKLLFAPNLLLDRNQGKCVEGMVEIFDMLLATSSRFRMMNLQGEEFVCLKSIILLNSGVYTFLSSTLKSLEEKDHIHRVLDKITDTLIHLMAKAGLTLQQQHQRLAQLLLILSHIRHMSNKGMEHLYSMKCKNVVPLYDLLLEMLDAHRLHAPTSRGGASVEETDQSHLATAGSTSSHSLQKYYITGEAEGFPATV

[3] = target: T2, Endothelin-1 receptor (Homo sapiens, UniProt P25101)
T2 sequence (P25101 whole entry): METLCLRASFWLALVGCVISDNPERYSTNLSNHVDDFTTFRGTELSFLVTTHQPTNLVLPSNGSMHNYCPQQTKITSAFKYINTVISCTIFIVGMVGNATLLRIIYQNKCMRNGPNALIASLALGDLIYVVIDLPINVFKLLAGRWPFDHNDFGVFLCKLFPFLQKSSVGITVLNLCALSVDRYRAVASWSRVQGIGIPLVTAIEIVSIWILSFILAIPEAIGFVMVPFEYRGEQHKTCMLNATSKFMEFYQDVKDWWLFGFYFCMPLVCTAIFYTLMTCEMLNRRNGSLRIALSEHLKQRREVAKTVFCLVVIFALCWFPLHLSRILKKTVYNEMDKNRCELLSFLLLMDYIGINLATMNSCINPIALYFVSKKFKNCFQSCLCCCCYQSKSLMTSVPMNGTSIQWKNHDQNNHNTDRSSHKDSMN

[4] = target: Kappa-type opioid receptor (Homo sapiens, UniProt P41145)
Chain of Kappa-type opioid receptor (P41145 whole entry): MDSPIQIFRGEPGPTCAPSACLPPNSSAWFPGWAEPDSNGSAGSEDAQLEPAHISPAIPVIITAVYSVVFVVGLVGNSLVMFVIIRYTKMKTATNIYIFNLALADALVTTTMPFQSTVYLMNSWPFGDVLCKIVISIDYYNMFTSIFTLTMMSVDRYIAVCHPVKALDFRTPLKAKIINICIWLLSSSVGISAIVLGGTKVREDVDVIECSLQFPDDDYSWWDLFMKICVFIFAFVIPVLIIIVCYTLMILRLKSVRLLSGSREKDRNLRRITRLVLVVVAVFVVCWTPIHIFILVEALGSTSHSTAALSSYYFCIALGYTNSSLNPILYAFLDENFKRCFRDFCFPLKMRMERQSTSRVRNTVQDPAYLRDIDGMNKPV

[5] = target: Muscarinic acetylcholine receptor M3 (Homo sapiens, UniProt P20309)
Chain of Muscarinic acetylcholine receptor M3 (P20309 whole entry): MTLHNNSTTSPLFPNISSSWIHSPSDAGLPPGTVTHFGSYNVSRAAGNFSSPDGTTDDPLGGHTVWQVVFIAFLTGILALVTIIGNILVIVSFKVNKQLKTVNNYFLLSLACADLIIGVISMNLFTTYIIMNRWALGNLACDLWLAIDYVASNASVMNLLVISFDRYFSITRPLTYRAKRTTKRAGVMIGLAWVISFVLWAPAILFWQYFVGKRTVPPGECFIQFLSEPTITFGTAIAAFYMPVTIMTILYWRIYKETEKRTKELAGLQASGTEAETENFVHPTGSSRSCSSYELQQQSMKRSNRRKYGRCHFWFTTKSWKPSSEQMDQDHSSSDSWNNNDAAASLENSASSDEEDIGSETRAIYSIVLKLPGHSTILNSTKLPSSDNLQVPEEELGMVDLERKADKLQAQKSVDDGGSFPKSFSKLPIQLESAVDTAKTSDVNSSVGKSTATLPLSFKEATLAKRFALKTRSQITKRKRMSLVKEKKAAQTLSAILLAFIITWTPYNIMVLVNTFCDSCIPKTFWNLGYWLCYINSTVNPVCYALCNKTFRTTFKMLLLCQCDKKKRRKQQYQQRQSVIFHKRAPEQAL

[6] = target: Cannabinoid receptor 1 (Homo sapiens, UniProt P21554); assay type: functional, cell-based
Chain of Cannabinoid receptor 1 (P21554 whole entry): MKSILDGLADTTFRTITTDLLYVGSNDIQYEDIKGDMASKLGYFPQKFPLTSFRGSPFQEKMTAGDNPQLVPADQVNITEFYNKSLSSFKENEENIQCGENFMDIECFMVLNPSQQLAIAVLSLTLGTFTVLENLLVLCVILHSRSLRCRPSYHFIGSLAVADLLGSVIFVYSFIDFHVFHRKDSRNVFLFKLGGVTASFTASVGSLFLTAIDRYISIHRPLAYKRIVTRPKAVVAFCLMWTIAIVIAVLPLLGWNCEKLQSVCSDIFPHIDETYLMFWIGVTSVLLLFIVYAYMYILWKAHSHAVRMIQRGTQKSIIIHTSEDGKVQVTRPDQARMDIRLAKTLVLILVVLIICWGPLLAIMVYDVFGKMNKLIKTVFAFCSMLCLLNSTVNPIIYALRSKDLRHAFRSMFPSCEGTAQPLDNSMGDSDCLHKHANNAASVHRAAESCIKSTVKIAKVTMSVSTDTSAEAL

[7] = target: Sodium-dependent noradrenaline transporter (Homo sapiens, UniProt P23975)
Chain of Sodium-dependent noradrenaline transporter (P23975 whole entry): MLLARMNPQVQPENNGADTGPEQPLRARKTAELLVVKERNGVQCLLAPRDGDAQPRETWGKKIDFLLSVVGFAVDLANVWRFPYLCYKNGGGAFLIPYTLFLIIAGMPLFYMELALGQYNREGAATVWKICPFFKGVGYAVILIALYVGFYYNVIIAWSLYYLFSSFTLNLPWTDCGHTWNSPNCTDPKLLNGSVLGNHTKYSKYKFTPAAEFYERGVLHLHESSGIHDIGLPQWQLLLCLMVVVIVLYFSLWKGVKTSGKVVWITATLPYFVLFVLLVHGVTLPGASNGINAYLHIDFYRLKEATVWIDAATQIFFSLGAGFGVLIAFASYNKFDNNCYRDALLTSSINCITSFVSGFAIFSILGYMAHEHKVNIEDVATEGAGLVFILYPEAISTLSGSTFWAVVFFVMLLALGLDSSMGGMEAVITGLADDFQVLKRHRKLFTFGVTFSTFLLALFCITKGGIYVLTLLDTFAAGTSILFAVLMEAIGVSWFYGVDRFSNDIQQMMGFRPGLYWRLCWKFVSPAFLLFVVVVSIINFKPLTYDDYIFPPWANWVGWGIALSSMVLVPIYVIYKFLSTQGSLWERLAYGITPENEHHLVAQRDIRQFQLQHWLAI

[8] = target: Acetylcholinesterase (Homo sapiens, UniProt P22303); assay type: functional
Chain of Acetylcholinesterase (P22303 whole entry): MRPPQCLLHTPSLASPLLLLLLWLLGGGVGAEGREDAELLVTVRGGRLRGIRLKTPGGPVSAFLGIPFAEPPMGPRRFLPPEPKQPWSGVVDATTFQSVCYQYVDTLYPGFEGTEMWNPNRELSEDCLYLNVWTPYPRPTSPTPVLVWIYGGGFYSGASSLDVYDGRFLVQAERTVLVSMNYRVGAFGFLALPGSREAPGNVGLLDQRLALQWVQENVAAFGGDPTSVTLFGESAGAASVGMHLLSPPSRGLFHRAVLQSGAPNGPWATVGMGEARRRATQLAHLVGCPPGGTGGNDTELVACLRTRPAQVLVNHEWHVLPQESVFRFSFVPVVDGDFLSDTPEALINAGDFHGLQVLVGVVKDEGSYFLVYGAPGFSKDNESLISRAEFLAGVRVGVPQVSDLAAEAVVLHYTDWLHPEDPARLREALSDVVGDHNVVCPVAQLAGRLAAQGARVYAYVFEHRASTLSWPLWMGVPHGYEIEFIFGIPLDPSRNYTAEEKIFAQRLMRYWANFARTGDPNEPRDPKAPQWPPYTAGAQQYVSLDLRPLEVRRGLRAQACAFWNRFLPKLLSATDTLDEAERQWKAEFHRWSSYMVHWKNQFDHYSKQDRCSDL

[9] = target: D(3) dopamine receptor (Homo sapiens, UniProt P35462)
Chain of D(3) dopamine receptor (P35462 whole entry): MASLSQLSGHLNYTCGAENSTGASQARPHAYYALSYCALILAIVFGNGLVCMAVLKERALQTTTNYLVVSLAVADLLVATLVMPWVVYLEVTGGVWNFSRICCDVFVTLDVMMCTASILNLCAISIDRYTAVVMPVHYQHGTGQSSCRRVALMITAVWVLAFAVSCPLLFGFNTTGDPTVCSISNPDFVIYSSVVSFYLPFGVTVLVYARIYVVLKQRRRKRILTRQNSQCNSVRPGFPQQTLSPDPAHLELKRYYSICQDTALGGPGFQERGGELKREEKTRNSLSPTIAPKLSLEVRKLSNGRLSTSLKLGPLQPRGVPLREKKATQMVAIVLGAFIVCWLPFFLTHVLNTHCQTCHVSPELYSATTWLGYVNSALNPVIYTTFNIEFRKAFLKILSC

[10] = target: T3, Thromboxane A2 receptor (Homo sapiens, UniProt P21731); assay type: functional, cell-based
T3 sequence (P21731 whole entry): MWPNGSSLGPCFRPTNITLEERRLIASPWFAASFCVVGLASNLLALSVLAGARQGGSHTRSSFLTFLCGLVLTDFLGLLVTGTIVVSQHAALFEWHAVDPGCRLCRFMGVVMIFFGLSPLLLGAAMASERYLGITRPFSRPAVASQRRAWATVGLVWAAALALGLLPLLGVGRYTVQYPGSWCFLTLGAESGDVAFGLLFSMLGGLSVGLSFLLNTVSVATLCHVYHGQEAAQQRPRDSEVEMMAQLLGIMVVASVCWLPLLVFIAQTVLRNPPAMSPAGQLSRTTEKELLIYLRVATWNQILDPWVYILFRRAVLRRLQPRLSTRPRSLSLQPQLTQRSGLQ

[11] = target: T4, Alpha-1A adrenergic receptor (Homo sapiens, UniProt P35348); assay type: functional, cell-based
T4 sequence (P35348 whole entry): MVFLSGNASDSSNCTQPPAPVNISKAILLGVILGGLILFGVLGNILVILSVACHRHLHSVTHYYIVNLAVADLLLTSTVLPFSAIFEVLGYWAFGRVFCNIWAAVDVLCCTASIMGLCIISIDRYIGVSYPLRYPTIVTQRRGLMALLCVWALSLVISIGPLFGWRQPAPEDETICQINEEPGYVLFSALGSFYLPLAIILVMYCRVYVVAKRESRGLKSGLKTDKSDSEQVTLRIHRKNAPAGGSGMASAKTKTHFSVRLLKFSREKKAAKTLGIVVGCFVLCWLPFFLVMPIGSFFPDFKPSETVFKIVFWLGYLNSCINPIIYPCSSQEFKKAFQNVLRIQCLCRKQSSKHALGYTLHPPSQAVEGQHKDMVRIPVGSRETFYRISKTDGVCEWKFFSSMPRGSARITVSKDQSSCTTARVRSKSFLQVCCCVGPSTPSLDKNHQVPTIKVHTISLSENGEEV
Note: assay procedure not described here.

Chain of Mu-type opioid receptor (P35372 whole entry): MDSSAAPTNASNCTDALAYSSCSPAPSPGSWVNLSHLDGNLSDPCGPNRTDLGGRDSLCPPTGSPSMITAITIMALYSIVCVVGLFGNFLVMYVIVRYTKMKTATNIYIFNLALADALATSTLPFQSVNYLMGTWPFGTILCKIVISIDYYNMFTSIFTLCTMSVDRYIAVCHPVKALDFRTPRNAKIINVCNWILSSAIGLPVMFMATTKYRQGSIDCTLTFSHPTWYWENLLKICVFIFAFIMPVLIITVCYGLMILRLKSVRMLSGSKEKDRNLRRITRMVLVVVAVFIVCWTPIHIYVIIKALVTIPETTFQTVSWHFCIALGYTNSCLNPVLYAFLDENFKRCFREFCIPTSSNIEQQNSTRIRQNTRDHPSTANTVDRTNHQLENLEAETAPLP

Q: With `C=CCNc1nc(NCC=C)nc(N2CCN(C(c3ccc(F)cc3)c3ccc(F)cc3)CC2)n1` [ALMITRINE] as the compound, how does the AC50 [1] read?
A: > 30 µM

Q: What about the AC50 [2] of the same compound?
A: > 30 µM

Q: And the AC50 [3]?
A: > 30 µM

Q: And the AC50 [4]?
A: 18 µM

Q: What about the AC50 [5] of the same compound?
A: > 30 µM

Q: For `CC(C)[C@H](N)C(=O)OCC(CO)OCn1cnc2c(=O)nc(N)[nH]c21` (some centres undefined) [VALGANCICLOVIR], which AC50 [1] is on record?
A: > 30 µM

Q: And the AC50 [2]?
A: > 30 µM

Q: What about the AC50 [4] of the same compound?
A: > 30 µM

Q: And the AC50 [5]?
A: > 30 µM

Q: `CCC1(c2ccccc2)CCC(=O)NC1=O` (centres undefined) [GLUTETHIMIDE] was tested. Which AC50 [6] did it give?
A: > 30 µM

Q: What about the AC50 [2] of the same compound?
A: > 10 µM

Q: And the AC50 [4]?
A: > 10 µM

Q: And the AC50 [5]?
A: > 30 µM

Q: Which results are given for `COc1cc(N)c(Cl)cc1C(=O)NC1CCN(Cc2ccccc2)CC1` [CLEBOPRIDE]?
A: AC50 [6]: > 30 µM; AC50 [1]: > 30 µM; AC50 [2]: > 30 µM; AC50 [3]: > 30 µM; AC50 [4]: 22 µM; AC50 [5]: > 30 µM

Q: How did the AC50 [1] turn out when `Nc1ncn([C@H]2C[C@H](O)[C@@H](CO)O2)c(=O)n1` [DECITABINE] was run?
A: > 30 µM

Q: What about the AC50 [4] of the same compound?
A: > 30 µM

Q: And the AC50 [5]?
A: > 30 µM

Q: For `Cc1cccc(N2CC(CO)OC2=O)c1` (centres undefined) [TOLOXATONE], which AC50 [6] is on record?
A: > 30 µM

Q: And the AC50 [1]?
A: > 30 µM

Q: What about the AC50 [3] of the same compound?
A: > 30 µM

Q: What about the AC50 [4] of the same compound?
A: > 30 µM

Q: And the AC50 [5]?
A: > 30 µM

Q: How did the AC50 [7] turn out when `C=C1CC[C@H](O)C/C1=C/C=C1\CCC[C@]2(C)[C@@H]([C@H](C)/C=C/[C@H](C)C(C)C)CC[C@@H]12` [ERGOCALCIFEROL] was run?
A: > 30 µM

Q: What about the AC50 [8] of the same compound?
A: > 30 µM

Q: And the AC50 [9]?
A: > 30 µM

Q: And the AC50 [10]?
A: > 30 µM

Q: With `C#C[C@]1(OC(C)=O)CC[C@H]2[C@@H]3CCC4=C/C(=N/O)CC[C@@H]4[C@H]3CC[C@@]21CC` [NORGESTIMATE] as the compound, how does the AC50 [6] read?
A: > 30 µM

Q: And the AC50 [1]?
A: > 30 µM

Q: And the AC50 [2]?
A: > 30 µM

Q: And the AC50 [3]?
A: > 30 µM

Q: What about the AC50 [4] of the same compound?
A: > 30 µM

Q: Which AC50 [6] does the source give for `COCC1=C(C(=O)O)N2C(=O)[C@@H](NC(=O)/C(=N\OC)c3csc(N)n3)[C@H]2SC1` [CEFPODOXIME] here?
A: > 30 µM

Q: And the AC50 [1]?
A: > 30 µM

Q: What about the AC50 [2] of the same compound?
A: > 30 µM

Q: And the AC50 [3]?
A: > 30 µM

Q: What about the AC50 [4] of the same compound?
A: > 30 µM

Q: And the AC50 [5]?
A: > 30 µM

Q: How did the AC50 [6] turn out when `Clc1ccc2c(N3CCN(CCCN4CCN(c5ccnc6cc(Cl)ccc56)CC4)CC3)ccnc2c1` [PIPERAQUINE] was run?
A: > 30 µM

Q: And the AC50 [1]?
A: > 30 µM

Q: And the AC50 [2]?
A: > 30 µM

Q: And the AC50 [3]?
A: > 30 µM

Q: What about the AC50 [4] of the same compound?
A: 17 µM

Q: And the AC50 [5]?
A: > 30 µM

Q: For `O=C(O)c1cn(C2CC2)c2cc(N3CCNCC3)c(F)cc2c1=O` [CIPROFLOXACIN], which AC50 [2] is on record?
A: > 30 µM

Q: What about the AC50 [10] of the same compound?
A: > 30 µM

Q: What about the AC50 [3] of the same compound?
A: > 30 µM

Q: `Clc1ccc(C(Cn2ccnc2)OCc2ccsc2Cl)c(Cl)c1` (centres undefined) [TIOCONAZOLE] was tested. Which AC50 [1] did it give?
A: > 30 µM

Q: And the AC50 [2]?
A: > 10 µM

Q: And the AC50 [4]?
A: 1.8 µM

Q: What about the AC50 [5] of the same compound?
A: 26 µM

Q: With `CCCN[C@H]1CCc2nc(N)sc2C1` [PRAMIPEXOLE] as the compound, how does the AC50 [6] read?
A: > 30 µM

Q: What about the AC50 [4] of the same compound?
A: > 10 µM

Q: And the AC50 [5]?
A: > 30 µM

Q: How did the AC50 [2] turn out when `Cc1cnc(C(=O)NCCc2ccc(S(=O)(=O)NC(=O)NC3CCCCC3)cc2)cn1` [GLIPIZIDE] was run?
A: > 30 µM

Q: And the AC50 [10]?
A: > 30 µM

Q: What about the AC50 [11] of the same compound?
A: > 3 µM

Q: And the AC50 [3]?
A: > 30 µM

Q: And the AC50 [4]?
A: > 10 µM

Q: `CCN(CC)C(=S)S` [DITIOCARB] was tested. Which AC50 [7] did it give?
A: > 30 µM

Q: What about the AC50 [8] of the same compound?
A: > 10 µM

Q: What about the AC50 [9] of the same compound?
A: > 30 µM

Q: What about the AC50 [10] of the same compound?
A: > 1 µM

Q: What about the AC50 [11] of the same compound?
A: > 1 µM

Q: What does the source list for `CC1(C)S[C@@H]2[C@H](NC(=O)[C@H](N)c3ccccc3)C(=O)N2[C@H]1C(=O)OCOC(=O)[C@@H]1N2C(=O)C[C@H]2S(=O)(=O)C1(C)C` [SULTAMICILLIN]?
A: AC50 [6]: > 30 µM; AC50 [1]: > 30 µM; AC50 [2]: > 30 µM; AC50 [3]: > 30 µM; AC50 [4]: > 30 µM; AC50 [5]: > 30 µM
